pIC50: −log10 of the molar value.
biological target: BCL6 (Homo sapiens (Human), UniProt P41182); assay: BCL6 TR-FRET assay (BCL6-Avitag-Biotin / BCoR-Cy5 peptide); assay type: binding; conditions: not given
Procedure: Protein Synthesis. BCL6 protein was expressed by transforming Invitrogen One Shot cells with GS63525 pET24a-His-SUMO-TEV-BCLm-Avitag plasmid following manufacturer's instructions. In addition, biotin at a final concentration of 50 μM, and IPTG at a final concentration of 1 mM was added to the culture and incubated at room temperature shaking overnight.
Assay buffer A: 50 mM HEPES pH 7.5, 125 mM NaCl, 0.01% TritonX.
Assay buffer B (made fresh): buffer A+1 mM Glutathione (or 0.5 mM DTT).
Assay buffer C (made fresh): buffer B+0.03% BSA.
Black Proxy plates, 96 well.
15 μl final reaction volumes (BCoR-Cy5 100 nM, SA-Eu 2 nM, BCL6-avitag 2 nM).
[…] BCL6-Avitag-Biotin stock: made fresh by adding 2 μl of BCL6-Avitag-Biotin to 31.5 ml Buffer C.
1 mM BCoR-Cy5 peptide (LifeTein) stock in Dimethylformamide (DMF).
300 nM BCoR-Cy5 working stock: made fresh by adding 4.5 μl of the 1 mM BCoR-Cy5 peptide stock to 15 ml Buffer B.
10 μM Eu-Streptavidin (Lance Eu-W1024 Streptavidin, PerkinElmer) stock solution.
6 nM Eu-Streptavidin working stock: made fresh by adding 9 μl Eu-Streptavidin stock solution to 15 ml Buffer A.
Compounds were diluted to 10 mM. Twenty microliters of DMSO was aliquoted to each well of the microtiter plates. From the 10 mM compound stock, 8.7 ul was aliquoted to the 20 ul DMSO and 3-fold serial dilutions (12 pt 3-0.01 uM tritration plate, 96 well, 100% DMSO) performed. Five ul from the titration plate wells was aliquoted to 45 ul Buff C (Intermediate dilution plates, 10% DMSO).
Spot 1.5 μl compound titrations to 384-well plates in duplicate, and spot 3.5 μl [8.5 nM] BCL6-bio protein to each well. The plate was mix briefly, centrifuged, and incubated for 30 minutes at room temperature.
Mix 14 mls of BCoR-Cy5 [300 nM] and 14 mls [6 nM] Eu-Streptavidin. Spot 10 μl BCoR-Cy5/SA-Eu (1:1) mix to each well. The plates were incubated for 2 hours and then read on an Envision plate reader.

Row | SMILES | EC50
1 | CNC(=O)COc1cc2cc(Nc3nc(N4CCC[C@H](COc5cccc6c5C(=O)N(C5CCC(=O)NC5=O)C6=O)C4)ncc3Cl)ccc2n(C)c1=O (stereo partly drawn) [compound 192, 2-((6-((5-chloro-2-((3S)-3-(((2-(2,6-dioxopiperidin-3-yl)-1,3-dioxoisoindolin-4-yl)oxy)methyl)piperidin-1-yl)pyrimidin-4-yl)amino)-1-methyl-2-oxo-1,2-dihydroquinolin-3-yl)oxy)-N-methylacetamide] | > 100 nM
2 | Cn1c(=O)c(OC2COC2)cc2cc(Nc3nc(N4CCC(CN5CCN(c6ccc7c(c6)C(=O)N(C6CCC(=O)NC6=O)C7=O)CC5)CC4)ncc3Cl)ccc21 (stereo not shown) [compound 223, 5-(4-((1-(5-chloro-4-((1-methyl-3-(oxetan-3-yloxy)-2-oxo-1,2-dihydroquinolin-6-yl)amino)pyrimidin-2-yl)piperidin-4-yl)methyl)piperazin-1-yl)-2-(2,6-dioxopiperidin-3-yl)isoindoline-1,3-dione] | > 100 nM

same assay, conditions: read-out: IC50

Row | SMILES | pIC50
3 | CNC(=O)COc1cc2cc(Nc3nc(N4CCC(CN5CCCN(c6cccc(N7CCC(=O)NC7=O)c6OC)CC5)CC4)ncc3Cl)ccc2n(C(C)C)c1=O [compound 535, 2-{[6-({5-chloro-2-[4-({4-[3-(2,4-dioxo-1,3-diazinan-1-yl)-2-methoxyphenyl]-1,4-diazepan-1-yl}methyl)piperidin-1-yl]pyrimidin-4-yl}amino)-2-oxo-1-(propan-2-yl)-1,2-dihydroquinolin-3-yl]oxy}-N-methylacetamide] | 7.30 to 8.00
4 | CNC(=O)COc1cc2cc(Nc3nc(N4CCC(O[C@@H]5C[C@@H](Oc6cccc7c6C(=O)N(C6CCC(=O)NC6=O)C7=O)CN(C)C5)CC4)ncc3Cl)ccc2n(C(C)C)c1=O (stereo partly drawn) [compound 479, 2-[(6-{[5-chloro-2-(4-{[(3R,5R)-5-{[2-(2,6-dioxopiperidin-3-yl)-1,3-dioxo-2,3-dihydro-1H-isoindol-4-yl]oxy}-1-methylpiperidin-3-yl]oxy}piperidin-1-yl)pyrimidin-4-yl]amino}-2-oxo-1-(propan-2-yl)-1,2-dihydroquinolin-3-yl)oxy]-N-methylacetamide] | ≤ 7.00
5 | CNC(=O)COc1cc2cc(Nc3nc(N4CCC(N5CCC6(CCN(c7cccc8c7C(=O)N(C7CCC(=O)NC7=O)C8=O)C6)CC5)CC4)ncc3Cl)ccc2n(C(C)C)c1=O (stereo not shown) [compound 528, 2-[(6-{[5-chloro-2-(4-{2-[2-(2,6-dioxopiperidin-3-yl)-1,3-dioxo-2,3-dihydro-1H-isoindol-4-yl]-2,8-diazaspiro[4.5]decan-8-yl}piperidin-1-yl)pyrimidin-4-yl]amino}-2-oxo-1-(propan-2-yl)-1,2-dihydroquinolin-3-yl)oxy]-N-methylacetamide] | 7.30 to 8.00
6 | CNC(=O)COc1cc2cc(Nc3nc(N4CCC(O[C@H]5C[C@H](Oc6ccc7c(c6)C(=O)N(C6CCC(=O)NC6=O)C7=O)CN(C)C5)CC4)ncc3Cl)ccc2n(C(C)C)c1=O (stereo partly drawn) [compound 459, 2-[(6-{[5-chloro-2-(4-{[(3S,5S)-5-{[2-(2,6-dioxopiperidin-3-yl)-1,3-dioxo-2,3-dihydro-1H-isoindol-5-yl]oxy}-1-methylpiperidin-3-yl]oxy}piperidin-1-yl)pyrimidin-4-yl]amino}-2-oxo-1-(propan-2-yl)-1,2-dihydroquinolin-3-yl)oxy]-N-methylacetamide] | ≤ 7.00
7 | CNC(=O)COc1cc2cc(Nc3nc(N4CCC(O[C@@H]5C[C@H](Oc6cccc7c6C(=O)N(C6CCC(=O)NC6=O)C7=O)CN(C)C5)CC4)ncc3Cl)ccc2n(C(C)C)c1=O (stereo partly drawn) [compound 487, 2-[(6-{[5-chloro-2-(4-{[(3R,5S)-5-{[2-(2,6-dioxopiperidin-3-yl)-1,3-dioxo-2,3-dihydro-1H-isoindol-4-yl]oxy}-1-methylpiperidin-3-yl]oxy}piperidin-1-yl)pyrimidin-4-yl]amino}-2-oxo-1-(propan-2-yl)-1,2-dihydroquinolin-3-yl)oxy]-N-methylacetamide] | ≤ 7.00
8 | CNC(=O)COc1cc2cc(Nc3nc(N4CCC(O[C@@H]5C[C@H](COc6ccc7c(c6)C(=O)N(C6CCC(=O)NC6=O)C7=O)N(C)C5)CC4)ncc3Cl)ccc2n(C(C)C)c1=O (stereo partly drawn) [compound 460, 2-[(6-{[5-chloro-2-(4-{[(3R,5R)-5-({[2-(2,6-dioxopiperidin-3-yl)-1,3-dioxo-2,3-dihydro-1H-isoindol-5-yl]oxy}methyl)-1-methylpyrrolidin-3-yl]oxy}piperidin-1-yl)pyrimidin-4-yl]amino}-2-oxo-1-(propan-2-yl)-1,2-dihydroquinolin-3-yl)oxy]-N-methylacetamide] | ≤ 7.00
9 | CNC(=O)COc1cc2cc(Nc3nc(N4CCC(O[C@@H]5C[C@H](COc6cccc7c6C(=O)N(C6CCC(=O)NC6=O)C7=O)N(C)C5)CC4)ncc3Cl)ccc2n(C(C)C)c1=O (stereo partly drawn) [compound 486, 2-[(6-{[5-chloro-2-(4-{[(3R,5R)-5-({[2-(2,6-dioxopiperidin-3-yl)-1,3-dioxo-2,3-dihydro-1H-isoindol-4-yl]oxy}methyl)-1-methylpyrrolidin-3-yl]oxy}piperidin-1-yl)pyrimidin-4-yl]amino}-2-oxo-1-(propan-2-yl)-1,2-dihydroquinolin-3-yl)oxy]-N-methylacetamide] | ≤ 7.00
10 | CNC(=O)COc1cc2cc(Nc3nc(N4CCC(O[C@H]5C[C@@H](Oc6ccc7c(c6)C(=O)N(C6CCC(=O)NC6=O)C7=O)CN(C)C5)CC4)ncc3Cl)ccc2n(C(C)C)c1=O (stereo partly drawn) [compound 457, 2-[(6-{[5-chloro-2-(4-{[(3S,5R)-5-{[2-(2,6-dioxopiperidin-3-yl)-1,3-dioxo-2,3-dihydro-1H-isoindol-5-yl]oxy}-1-methylpiperidin-3-yl]oxy}piperidin-1-yl)pyrimidin-4-yl]amino}-2-oxo-1-(propan-2-yl)-1,2-dihydroquinolin-3-yl)oxy]-N-methylacetamide] | ≤ 7.00
11 | CNC(=O)COc1cc2cc(Nc3nc(N4CCC(O[C@@H]5C[C@@H](Oc6ccc7c(c6)C(=O)N(C6CCC(=O)NC6=O)C7=O)CN(C)C5)CC4)ncc3Cl)ccc2n(C(C)C)c1=O (stereo partly drawn) [compound 464, 2-[(6-{[5-chloro-2-(4-{[(3R,5R)-5-{[2-(2,6-dioxopiperidin-3-yl)-1,3-dioxo-2,3-dihydro-1H-isoindol-5-yl]oxy}-1-methylpiperidin-3-yl]oxy}piperidin-1-yl)pyrimidin-4-yl]amino}-2-oxo-1-(propan-2-yl)-1,2-dihydroquinolin-3-yl)oxy]-N-methylacetamide] | ≤ 7.00
12 | CNC(=O)COc1cc2cc(Nc3nc(N4CCC(O[C@H]5C[C@@H](COc6ccc7c(c6)C(=O)N(C6CCC(=O)NC6=O)C7=O)N(C)C5)CC4)ncc3Cl)ccc2n(C(C)C)c1=O (stereo partly drawn) [compound 456, 2-[(6-{[5-chloro-2-(4-{[(3S,5S)-5-({[2-(2,6-dioxopiperidin-3-yl)-1,3-dioxo-2,3-dihydro-1H-isoindol-5-yl]oxy}methyl)-1-methylpyrrolidin-3-yl]oxy}piperidin-1-yl)pyrimidin-4-yl]amino}-2-oxo-1-(propan-2-yl)-1,2-dihydroquinolin-3-yl)oxy]-N-methylacetamide] | ≤ 7.00
13 | CNC(=O)COc1cc2cc(Nc3nc(N4CCC(O[C@@H]5C[C@@H](COc6cccc7c6C(=O)N(C6CCC(=O)NC6=O)C7=O)N(C)C5)CC4)ncc3Cl)ccc2n(C(C)C)c1=O (stereo partly drawn) [compound 478, 2-[(6-{[5-chloro-2-(4-{[(3R,5S)-5-({[2-(2,6-dioxopiperidin-3-yl)-1,3-dioxo-2,3-dihydro-1H-isoindol-4-yl]oxy}methyl)-1-methylpyrrolidin-3-yl]oxy}piperidin-1-yl)pyrimidin-4-yl]amino}-2-oxo-1-(propan-2-yl)-1,2-dihydroquinolin-3-yl)oxy]-N-methylacetamide] | ≤ 7.00
